Data as given in US20050107394A1, “Novel use of selective pde5 inhibitors” (priority 2001, published 2005).
Values joined by “and” are separate entries in the source; they are usually repeats but may differ in a detail not shown here. Identical values can stand only once.

Tested on: patients with COPD (chronic obstructive pulmonary disease)
Experiment: Arterial oxygen saturation at rest in COPD patients
Assay type: in vivo, human
Design: dose or concentration left out as unconfirmed
Conditions: 4 COPD patients; sildenafil oral, 6 months
Method: FIG. 8: Result of determination of the arterial oxygen saturation on 4 patients with COPD (chronic obstructive pulmonary disease) treated with sildenafil (75 mg/day) (oral) measured at rest over a period of 6 months. The arterial oxygen saturation in the patient improved respectively by 2%, 4%, 5% and 6%, compared with the saturation at the start of the series of measurements (time: 0 months). […]

SMILES: CCCc1nn(C)c2c(=O)[nH]c(-c3cc(S(=O)(=O)N4CCN(C)CC4)ccc3OCC)nc12 [sildenafil, 5-[2-ethoxy-5-(4-methyl-1-piperazinyl-sulphonyl)phenyl]-1-methyl-3-n-propyl-1,6-dihydro-7H-pyrazolo[4,3-d]pyrimidin-7-one]
- arterial oxygen saturation at rest, improvement compared with the start (0 months), one value per patient: 2% and 4% and 5% and 6%
